Experimental data from patent publication US20260325508A1, “COMBINATION OF PAC-1 AND CAR T-CELL TREATMENTS” (THE BOARD OF TRUSTEES OF THE UNIVERSITY OF ILLINOIS, priority 2023, published 2026).

Test system: ID8Cosmc-KO
Experiment: Survival of ID8Cosmc-KO-bearing mice, PAC-1 and 237 CAR-T combinations
Assay type: in vivo, mouse
Conditions: single agent, PAC-1 100 mg/kg i.p. from day 40, three weeks 5 days ON, 2 days OFF; untreated 71 days; p<0.0001
Procedure: FIG. 14A-B. PAC-1 enhanced efficacy of 237 CAR-T in late-stage ovarian cancer model. Survival curves of mice with established ID8Cosmc-KO tumors treated with a combination of PAC-1 and 237 CAR-T in comparison with their single-agent controls. (A) Mice with detectable tumors at day 40 post-tumor inoculation were administered with either PAC-1 (100 mg/kg) or vehicle intraperitoneally for three weeks at a “five days ON, 2 days OFF” treatment schedule. At day 60 post-tumor inoculation, mice were given either 237 CAR-T or mock T cells (5 million cells, >40% transduction efficiency) via i.p. injection. Cyclophosphamide (100 mg/kg, i.p.) were administered 24 hours prior to adoptive T cell transfer to deplete pre-existing lymphocytes. (B) Data were plotted with GraphPad Prism v10 using cumulative data across five independent experiments, with the indicated total n for each treatment arm. Median survival times are indicated; P-values were calculated using the Log-rank (Mantel-Cox) test.
FIG. 15A-B. PAC-1 at day 50 (or day 60) and 237 CAR-T at day 60 combination treatment. […] Median survival times are indicated; P-values were calculated using the Log-rank (Mantel-Cox) test. […]
FIG. 16A-B. 237 CAR-T at day 60 and PAC-1 at day 77 combination treatment. […] Median survival times are indicated; P-values were calculated using the Log-rank (Mantel-Cox) test. […]

C=CCc1cccc(/C=N/NC(=O)CN2CCN(Cc3ccccc3)CC2)c1O [PAC-1] gave a median survival of 90 days.
